Test results from ChEMBL document CHEMBL5728589, “Inhibitors of RIP1 kinase and methods of use thereof” (2021).
“And” between values parts separate entries of the source, which are not always exact repeats. Identical values can stand only once.

Target: T1, Receptor-interacting serine/threonine-protein kinase 1 (Homo sapiens, UniProt Q13546)
T1 sequence (Q13546 whole entry): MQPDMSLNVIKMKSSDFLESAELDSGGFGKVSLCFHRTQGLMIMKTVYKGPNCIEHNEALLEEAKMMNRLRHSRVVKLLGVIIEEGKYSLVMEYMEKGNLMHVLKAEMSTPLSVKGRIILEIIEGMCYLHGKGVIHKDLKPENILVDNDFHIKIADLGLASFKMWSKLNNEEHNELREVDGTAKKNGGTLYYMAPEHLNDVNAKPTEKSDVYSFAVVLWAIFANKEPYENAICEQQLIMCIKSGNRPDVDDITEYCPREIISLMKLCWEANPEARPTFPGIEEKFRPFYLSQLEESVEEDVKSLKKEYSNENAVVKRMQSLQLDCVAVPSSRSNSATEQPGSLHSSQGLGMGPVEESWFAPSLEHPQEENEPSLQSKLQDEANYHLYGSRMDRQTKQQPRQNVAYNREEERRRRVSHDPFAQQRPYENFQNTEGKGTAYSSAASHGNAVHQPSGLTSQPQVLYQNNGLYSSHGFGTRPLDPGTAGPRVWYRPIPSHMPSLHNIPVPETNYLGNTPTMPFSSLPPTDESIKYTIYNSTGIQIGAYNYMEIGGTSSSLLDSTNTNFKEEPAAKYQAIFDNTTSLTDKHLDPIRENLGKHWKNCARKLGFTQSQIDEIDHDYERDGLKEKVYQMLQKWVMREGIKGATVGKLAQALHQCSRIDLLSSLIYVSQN
Test: Enzyme Assay: The ability of the receptor interacting protein kinase (RIPK1) to catalyze the hydrolysis of adenosine-5′-triphosphate (ATP) is monitored using the Transcreener ADP (adenosine-5′-diphosphate) assay (BellBrook Labs).

CCC(F)(F)[C@H]1CCc2nc(C(=O)N[C@H]3CCc4cc(F)cc(F)c4NC3=O)nn21
Ki: 21 nM and 14 nM
